In US20020164620A1, “Method for identifying compounds modulating sister chromatid separation” (Boehringer Ingelheim International GmbH, priority 2001, published 2002):
“Also recorded” adds a separate entry of the source. No end group written: not given here. *: point of attachment. acyloxymethyl ketone = C-terminal acyloxymethyl ketone; Biotin = O=C1N[C@H]2[C@H](CS[C@H]2CCCCC(=O)*)N1

Columns and labels:
human separase [1] = target: human separase (Homo sapiens, UniProt Q14674); conditions: same concentration at which SCC1 cleavage was inhibited
Sequence of human separase (Q14674 1536-2120 limits assumed): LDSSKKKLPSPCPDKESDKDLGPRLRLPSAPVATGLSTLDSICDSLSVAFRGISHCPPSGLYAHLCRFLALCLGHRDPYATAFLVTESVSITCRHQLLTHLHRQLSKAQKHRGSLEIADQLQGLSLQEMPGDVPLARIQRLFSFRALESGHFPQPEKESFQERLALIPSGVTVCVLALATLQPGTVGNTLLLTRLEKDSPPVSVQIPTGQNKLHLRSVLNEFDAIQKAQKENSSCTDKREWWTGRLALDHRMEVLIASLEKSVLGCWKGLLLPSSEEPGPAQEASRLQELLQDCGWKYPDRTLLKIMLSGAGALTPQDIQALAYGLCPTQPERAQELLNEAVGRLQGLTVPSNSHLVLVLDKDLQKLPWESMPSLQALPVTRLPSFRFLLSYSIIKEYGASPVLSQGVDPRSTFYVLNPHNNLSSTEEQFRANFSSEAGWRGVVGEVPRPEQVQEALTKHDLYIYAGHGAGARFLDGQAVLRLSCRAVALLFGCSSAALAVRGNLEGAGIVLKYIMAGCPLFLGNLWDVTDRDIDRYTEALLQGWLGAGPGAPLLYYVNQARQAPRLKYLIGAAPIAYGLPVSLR
Sequence of human separase (Homo sapiens, UniProt Q14674) (Q14674 whole entry): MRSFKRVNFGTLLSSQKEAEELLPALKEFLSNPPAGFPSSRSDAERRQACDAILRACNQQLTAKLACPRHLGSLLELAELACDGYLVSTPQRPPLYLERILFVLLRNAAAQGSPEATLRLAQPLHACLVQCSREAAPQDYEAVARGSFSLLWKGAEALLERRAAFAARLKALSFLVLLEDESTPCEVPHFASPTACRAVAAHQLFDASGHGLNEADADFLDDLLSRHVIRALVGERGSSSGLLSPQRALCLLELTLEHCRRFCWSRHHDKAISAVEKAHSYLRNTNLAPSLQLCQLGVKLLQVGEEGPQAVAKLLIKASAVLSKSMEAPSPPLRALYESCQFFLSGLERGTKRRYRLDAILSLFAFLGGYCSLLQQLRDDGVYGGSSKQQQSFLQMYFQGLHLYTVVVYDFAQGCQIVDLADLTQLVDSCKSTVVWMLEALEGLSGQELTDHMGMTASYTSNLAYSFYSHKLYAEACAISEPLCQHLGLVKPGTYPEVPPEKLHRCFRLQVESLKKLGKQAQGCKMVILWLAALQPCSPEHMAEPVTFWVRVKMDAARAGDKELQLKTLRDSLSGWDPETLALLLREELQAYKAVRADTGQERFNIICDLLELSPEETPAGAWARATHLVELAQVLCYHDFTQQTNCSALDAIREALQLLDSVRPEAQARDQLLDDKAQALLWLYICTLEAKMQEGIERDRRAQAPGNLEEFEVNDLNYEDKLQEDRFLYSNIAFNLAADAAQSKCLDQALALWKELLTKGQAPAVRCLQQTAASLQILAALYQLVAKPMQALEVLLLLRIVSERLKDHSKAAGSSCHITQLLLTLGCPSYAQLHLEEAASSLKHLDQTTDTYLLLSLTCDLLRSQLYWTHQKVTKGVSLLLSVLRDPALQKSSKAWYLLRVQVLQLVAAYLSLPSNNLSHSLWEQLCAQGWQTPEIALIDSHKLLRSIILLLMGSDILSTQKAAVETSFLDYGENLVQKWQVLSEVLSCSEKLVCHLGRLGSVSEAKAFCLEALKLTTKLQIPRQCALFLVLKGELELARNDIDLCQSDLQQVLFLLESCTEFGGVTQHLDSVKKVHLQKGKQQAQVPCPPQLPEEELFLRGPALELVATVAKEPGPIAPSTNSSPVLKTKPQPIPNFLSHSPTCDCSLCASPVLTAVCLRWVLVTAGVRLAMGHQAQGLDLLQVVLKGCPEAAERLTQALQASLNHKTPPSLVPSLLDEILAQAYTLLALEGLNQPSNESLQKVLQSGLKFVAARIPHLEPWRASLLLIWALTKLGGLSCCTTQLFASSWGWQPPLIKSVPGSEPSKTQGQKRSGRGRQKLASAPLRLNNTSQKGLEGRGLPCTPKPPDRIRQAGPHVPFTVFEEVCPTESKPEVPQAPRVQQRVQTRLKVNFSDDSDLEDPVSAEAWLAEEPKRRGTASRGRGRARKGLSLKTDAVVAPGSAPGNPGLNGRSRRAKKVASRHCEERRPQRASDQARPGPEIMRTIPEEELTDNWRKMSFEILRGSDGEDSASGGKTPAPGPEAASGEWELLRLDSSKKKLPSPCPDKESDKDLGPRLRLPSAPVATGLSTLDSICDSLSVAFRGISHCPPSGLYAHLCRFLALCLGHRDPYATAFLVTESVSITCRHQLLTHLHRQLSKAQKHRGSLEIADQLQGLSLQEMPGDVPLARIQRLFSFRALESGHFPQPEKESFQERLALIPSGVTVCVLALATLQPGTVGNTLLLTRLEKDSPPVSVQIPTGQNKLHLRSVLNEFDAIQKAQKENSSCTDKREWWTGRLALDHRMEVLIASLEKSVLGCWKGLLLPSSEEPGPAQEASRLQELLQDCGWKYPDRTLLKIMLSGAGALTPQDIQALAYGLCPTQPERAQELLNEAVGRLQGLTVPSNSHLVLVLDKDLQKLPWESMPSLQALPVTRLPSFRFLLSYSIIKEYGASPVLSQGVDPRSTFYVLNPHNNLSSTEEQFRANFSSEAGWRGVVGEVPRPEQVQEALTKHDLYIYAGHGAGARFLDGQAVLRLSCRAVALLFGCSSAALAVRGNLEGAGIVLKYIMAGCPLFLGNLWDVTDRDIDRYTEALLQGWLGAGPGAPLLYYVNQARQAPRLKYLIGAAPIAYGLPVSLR
Protocol: A. Mitotically activated separase immunoprecipitates were preincubated with yeast peptides (Uhlmann et al., 2000) before they were used in the SCC1-cleavage assay. Biotin-SVEQGR-amk or Biotin-SVEQGR-cmk were used at different concentration (0.1, 1, 10, 100, 1000 μM in XB+0.5 mM DTT). Separase immunoprecipitates were incubated for 10 minutes, 22° C. and 1200 rpm. The SCC1 in vitro cleavage assay was performed after washing once with XB+0.5 mM DTT (see above). Human peptides, Biotin-DREIMR-amk or DREIMR-amk, were diluted and used as above described for the yeast peptides.

human separase [2] = experiment: Covalent labelling of separase forms by biotin peptide (avidin blot); assay type: binding
Protocol: (§1) B. Separase immunoprecipitates were incubated with 100 μM Biotin-SVEQGR-amk or with DMSO prior mitotic activation. Incubation for 10 minutes, 22° C. and 1000 rpm. After washing twice in XB+1 mM DTT the activation was performed in mitotic Xenopus egg extracts.
(§2) Interphase Xenopus egg extracts were driven into mitosis in the presence of 1 mM Biotin-SVEQGR-amk or DMSO. Those mitotic Xenopus egg extracts were used to activate a batch of separase immunoprecipitates.
Biotin labeled peptides were detected via immunoblotting according to Faleiro et al., 1997.
C. Mitotically activated separase immunoprecipitates were preincubated with either 8 μg recombinant securin or with 8 μg of a C-terminal truncated version of cyclinB in 100 μl XB+1 mM DTT for 30 min at 22° C. and 1250 rpm. Subsequently the beads were washed twice with TBS+0.5 M NaCl+1 mM DTT+0.5% Tween 20 and twice with XB+1 mM DTT. Thereafter beads were incubated with 100 μl of 100 μM Bio-DREIMR-amk in XB+[…]. After 10 min incubation at 22° C. and 1250 rpm beads were again washed and analyzed by immunoblotting.
FIG. 4B: Separase IPs (see A) were either preincubated with Biotin-SVEQGR-amk (preinc. with inh. peptide) or with DMSO (preinc. with DMSO), subsequently washed and aliquots were taken. Thereafter they were incubated in mitotic Xenopus egg extracts and washed again. Samples were taken for analysis (1i, 1c). Separase IPs were activated either in mitotic Xenopus egg extracts which were driven into mitosis in the presence of Biotin-SVEQGR-amk or DMSO, subsequently washed and aliquots were taken for analysis (2i, 2c). Already mitotically activated separase IPs (see A) were incubated with Biotin-SVEQGR-amk or DMSO, thereafter washed and aliquots were taken for analysis (3i, 3c). All samples were analysed by immunoblotting with avidin.
FIG. 4D: Activated separase immunoprecipitates bound by antibodies against the C-terminus of separase to beads were first incubated with recombinant securin or, for control, with recombinant truncated cyclinB. […] Thereafter, the immunoprecipitates were again washed and analyzed by immunoblotting.

human separase [3] = experiment: SCC1 in vitro cleavage assay; assay type: biochemical
Protocol: 30 microliter beads were incubated with 40 μg bacterially expressed wildtype securin, destruction box deleted form of securin (Gmachl et al., 2000) or BSA diluted in XB+1 mM DTT for 40 min at RT. Subsequently the beads were washed with XB+1 mM DTT and with TBS+0.5 M NaCl+1 mM DTT+0.5% TWEEN20, followed by one wash with XB+1 mM DTT. To control the rebinding of securin an aliquot of 5 μl was taken per assay and subsequently analysed by immunoblotting with antibodies against separase and securin.
The beads were used for the SCC1 in vitro cleavage assay: 20 μl beads were mixed with 30 μl of the following SCC1 in vitro translation mix (SCC1 myc IVT+1 μl PLK-GST+0.3 μl […], 0.3 μl 100 mM ATP, 0.12 μl 250 mM EGTA, 13.78 μl XB+1 mM DTT) and incubated at 22° C. and 1200 rpm. 5 μl were taken per time point, the reaction was stopped by addition of SDS loading buffer. Samples were analyzed by immunoblotting with mouse monoclonal antibodies against myc (9E10).
as §1, §2

[4] = activation in mitotic Xenopus extracts in presence of peptide (lane 2i)
[5] = substance added to mitotically activated separase immunoprecipitates before SCC1-myc reaction mix

Substance	formation of the p55 cleavage product of human separase (human separase [1])	separase forms labeled by the peptide (human separase [2]; [4])	separase forms bound by the peptide (human separase [2]; peptide added after activation in mitotic Xenopus extracts (lane 3i))	separase forms labeled by the peptide (human separase [2]; peptide added before activation in mitotic Xenopus extracts (lane 1i))	relative effectiveness of the two yeast peptide inhibitors (human separase [3])	SCC1 cleavage by separase (human separase [3]; [4])	SCC1 cleavage by separase (human separase [3]; peptide added before activation and washed away before mitotic Xenopus extract (lane 1i))	SCC1 cleavage by separase (human separase [3]; [5])
Bio-SVEQGR-amk: synthetic peptide with budding yeast SCC1 cleavage site SVEQGR, C-terminal acyloxymethyl ketone, N-terminal biotin (Biotin-SVEQGR-{acyloxymethyl ketone})	largely inhibited	both the cleaved forms of separase and full-length separase were covalently labeled	bound exclusively to the cleaved forms of human separase	only the small amount of p60 that is already present in these immunoprecipitates was labeled	the more effective one of the two yeast peptide inhibitors	separase was unable to cleave SCC1	separase could be activated normally to cleave SCC1	inhibited SCC1 cleavage by separase; also recorded: able to block the ability of separase to cleave SCC1
DREIMR-amk: peptide inhibitor based on the cleavage recognition site of human SCC1, DREIMR, acyloxymethyl ketone (DREIMR-{acyloxymethyl ketone})	–	–	–	–	–	–	–	able to inhibit separase at a similar concentration as the peptide inhibitors derived from yeast
